Assay results: US20040076989A1, “Synaptic transmission assay” (priority 2000, published 2004)
Entries after “also recorded” stand apart in the source; their conditions may differ.

Key:
zif268 mRNA expression = assay: zif268 mRNA assay (Northern blot) in cultured dissociated hippocampal neurons; format: cell-based; details: added to induction medium
Procedure: The peak in zif268 expression after 30 min established the optimal delay for mRNA-based assays. Similar optimisation of protein-based immunohistochemical assays indicates an optimum 2 h post-exposure delay.
Zif268 mRNA assays were carried out as in Example 2, with cells exposed to ACSF control, to induction medium, or to induction medium with the addition of […] (an inhibitor of MAPK kinase) (FIG. 15) or with the addition of a mixture of the calcium channel blocker cadmium and the glutamate receptor antagonists AP5 and CNQX (FIG. 16).

[1] = tested on: neuronal zif268 expression; assay: zif268 immunocytochemical assay (zif268/NeuN double-labelled neurons) in dissociated hippocampal neuron culture; format: cell-based, Sprague-Dawley rat; details: added to induction medium, 0.2 μM each, 10 min exposure; listed as Carbachol
Procedure: Hippocampal neurons were prepared from late embryonic or 1st postnatal day Sprague-Dawley rates, and grown in dissociated cell culture in microtitre plates. After 7-21 days in vitro, serum-containing medium was replaced with serum-free medium for 24 h. This medium was then replaced with ACSF or with induction medium for 10 minutes; these solutions were then replaced with serum-free medium. After 1 hour, cells were fixed by replacement of serum-free medium with phosphate-buffered saline containing 4% paraformaldehyde. Immunolabelling was then carried out with rabbit antiserum against zif268 and mouse antibodies against the neuron-specific antigen NeuN. After washing, bound antibodies were visualised by incubation with Alexa488-labelled anti-rabbit IgG and Cy3-labelled anti-mouse IgG (FIG. 12 top).
An immunocytochemical assay was carried out as in Example 3, with cells exposed to ACSF, to induction medium, to induction medium with the addition of carbachol and isoproterenol (0.2 μM each) or to induction medium with the addition of carbachol only (0.2 μM).

| Compound | effect on chemically-induced zif268 mRNA expression (zif268 mRNA expression) | effect on chemically induced increase in neuronal zif268 immunoreactivity [1] |
| --- | --- | --- |
| COc1cccc(-c2cc(=O)c3ccccc3o2)c1N [PD98959] | significantly reduced; also recorded: inhibits |  |
| C[N+](C)(C)CCOC(N)=O [carbachol] |  | no effect |
